Results published in the NIST ThermoML archive (doi:10.1021/acs.jced.8b00176).
Numbers after ± are expanded uncertainties.

Legend:
[1] = 100 kPa, Liquid; for viscosity: Falling or rolling sphere viscometry; for speed of sound: Frequency=3 MHz, Single path-length method; for mass density: Vibrating tube method
[2] = xn = mol fraction of the nth substance listed; conditions: 100 kPa, Liquid; for viscosity: Falling or rolling sphere viscometry; for speed of sound: Frequency=3 MHz, Single path-length method; for mass density: Vibrating tube method

SMILES: CN(C)C=O [dimethylformamide]
- viscosity ([1]; 298.15 K): 0.81 ± 0.2 mPa·s
- speed of sound ([1]; 298.15 K): 1457.1 ± 2.2 m/s
- mass density ([1]; 298.15 K): 943.934 ± 2 kg/m3
- viscosity ([1]; 303.15 K): 0.77 ± 0.2 mPa·s
- speed of sound ([1]; 303.15 K): 1437.8 ± 2.2 m/s
- mass density ([1]; 303.15 K): 939.162 ± 2 kg/m3
- viscosity ([1]; 308.15 K): 0.72 ± 0.2 mPa·s
- speed of sound ([1]; 308.15 K): 1418.5 ± 2.2 m/s
- mass density ([1]; 308.15 K): 934.373 ± 2 kg/m3
- viscosity ([1]; 313.15 K): 0.69 ± 0.2 mPa·s
- speed of sound ([1]; 313.15 K): 1399.2 ± 2.2 m/s
- mass density ([1]; 313.15 K): 929.577 ± 2 kg/m3
- viscosity ([1]; 318.15 K): 0.65 ± 0.2 mPa·s
- speed of sound ([1]; 318.15 K): 1379.9 ± 2.2 m/s
- mass density ([1]; 318.15 K): 924.765 ± 2 kg/m3
- viscosity ([1]; 323.15 K): 0.62 ± 0.2 mPa·s
- speed of sound ([1]; 323.15 K): 1360.7 ± 2.2 m/s
- mass density ([1]; 323.15 K): 919.95 ± 2 kg/m3

SMILES: CC#N [acetonitrile]
- viscosity ([1]; 298.15 K): 0.34 mPa·s
- speed of sound ([1]; 298.15 K): 1278.5 ± 2.2 m/s
- mass density ([1]; 298.15 K): 776.714 ± 2 kg/m3
- viscosity ([1]; 303.15 K): 0.32 mPa·s
- speed of sound ([1]; 303.15 K): 1258.4 ± 2.2 m/s
- mass density ([1]; 303.15 K): 771.289 ± 2 kg/m3
- viscosity ([1]; 308.15 K): 0.31 mPa·s
- speed of sound ([1]; 308.15 K): 1238.2 ± 2.2 m/s
- mass density ([1]; 308.15 K): 765.833 ± 2 kg/m3
- viscosity ([1]; 313.15 K): 0.3 mPa·s
- speed of sound ([1]; 313.15 K): 1218 ± 2.2 m/s
- mass density ([1]; 313.15 K): 760.339 ± 2 kg/m3
- viscosity ([1]; 318.15 K): 0.29 mPa·s
- speed of sound ([1]; 318.15 K): 1197.9 ± 2.2 m/s
- mass density ([1]; 318.15 K): 754.815 ± 2 kg/m3
- viscosity ([1]; 323.15 K): 0.28 mPa·s
- speed of sound ([1]; 323.15 K): 1177.8 ± 2.2 m/s
- mass density ([1]; 323.15 K): 749.253 ± 2 kg/m3

SMILES: CC#N [acetonitrile] + CCCCn1cc[n+](C)c1.O=S(=O)([O-])C(F)(F)F
- viscosity ([2]; 298.15 K, x2 = 0): 0.34 mPa·s
- speed of sound ([2]; 298.15 K, x2 = 0): 1278.5 ± 2.2 m/s
- mass density ([2]; 298.15 K, x2 = 0): 776.714 ± 2 kg/m3
- viscosity ([2]; 303.15 K, x2 = 0): 0.32 mPa·s
- speed of sound ([2]; 303.15 K, x2 = 0): 1258.4 ± 2.2 m/s
- mass density ([2]; 303.15 K, x2 = 0): 771.289 ± 2 kg/m3
- viscosity ([2]; 308.15 K, x2 = 0): 0.31 mPa·s
- speed of sound ([2]; 308.15 K, x2 = 0): 1238.2 ± 2.2 m/s
- mass density ([2]; 308.15 K, x2 = 0): 765.833 ± 2 kg/m3
- viscosity ([2]; 313.15 K, x2 = 0): 0.3 mPa·s
- speed of sound ([2]; 313.15 K, x2 = 0): 1218 ± 2.2 m/s
- mass density ([2]; 313.15 K, x2 = 0): 760.339 ± 2 kg/m3
- viscosity ([2]; 318.15 K, x2 = 0): 0.29 mPa·s
- speed of sound ([2]; 318.15 K, x2 = 0): 1197.9 ± 2.2 m/s
- mass density ([2]; 318.15 K, x2 = 0): 754.815 ± 2 kg/m3
- viscosity ([2]; 323.15 K, x2 = 0): 0.28 mPa·s
- speed of sound ([2]; 323.15 K, x2 = 0): 1177.8 ± 2.2 m/s
- mass density ([2]; 323.15 K, x2 = 0): 749.253 ± 2 kg/m3

SMILES: CN(C)C=O [dimethylformamide] + CC#N
- viscosity ([2]; 298.15 K, x1 = 1): 0.81 ± 0.2 mPa·s
- speed of sound ([2]; 298.15 K, x1 = 1): 1457.1 ± 2.2 m/s
- mass density ([2]; 298.15 K, x1 = 1): 943.934 ± 2 kg/m3
- viscosity ([2]; 303.15 K, x1 = 1): 0.77 ± 0.2 mPa·s
- speed of sound ([2]; 303.15 K, x1 = 1): 1437.8 ± 2.2 m/s
- mass density ([2]; 303.15 K, x1 = 1): 939.162 ± 2 kg/m3
- viscosity ([2]; 308.15 K, x1 = 1): 0.72 ± 0.2 mPa·s
- speed of sound ([2]; 308.15 K, x1 = 1): 1418.5 ± 2.2 m/s
- mass density ([2]; 308.15 K, x1 = 1): 934.373 ± 2 kg/m3
- viscosity ([2]; 313.15 K, x1 = 1): 0.69 ± 0.2 mPa·s
- speed of sound ([2]; 313.15 K, x1 = 1): 1399.2 ± 2.2 m/s
- mass density ([2]; 313.15 K, x1 = 1): 929.577 ± 2 kg/m3
- viscosity ([2]; 318.15 K, x1 = 1): 0.65 ± 0.2 mPa·s
- speed of sound ([2]; 318.15 K, x1 = 1): 1379.9 ± 2.2 m/s
- mass density ([2]; 318.15 K, x1 = 1): 924.765 ± 2 kg/m3
- viscosity ([2]; 323.15 K, x1 = 1): 0.62 ± 0.2 mPa·s
- speed of sound ([2]; 323.15 K, x1 = 1): 1360.7 ± 2.2 m/s
- mass density ([2]; 323.15 K, x1 = 1): 919.95 ± 2 kg/m3

SMILES: CN(C)C=O [dimethylformamide] + CCCCn1cc[n+](C)c1.O=S(=O)([O-])C(F)(F)F
- viscosity ([2]; 298.15 K, x2 = 0): 0.81 ± 0.2 mPa·s
- speed of sound ([2]; 298.15 K, x2 = 0): 1457.1 ± 2.2 m/s
- mass density ([2]; 298.15 K, x2 = 0): 943.934 ± 2 kg/m3
- viscosity ([2]; 303.15 K, x2 = 0): 0.77 ± 0.2 mPa·s
- speed of sound ([2]; 303.15 K, x2 = 0): 1437.8 ± 2.2 m/s
- mass density ([2]; 303.15 K, x2 = 0): 939.162 ± 2 kg/m3
- viscosity ([2]; 308.15 K, x2 = 0): 0.72 ± 0.2 mPa·s
- speed of sound ([2]; 308.15 K, x2 = 0): 1418.5 ± 2.2 m/s
- mass density ([2]; 308.15 K, x2 = 0): 934.373 ± 2 kg/m3
- viscosity ([2]; 313.15 K, x2 = 0): 0.69 ± 0.2 mPa·s
- speed of sound ([2]; 313.15 K, x2 = 0): 1399.2 ± 2.2 m/s
- mass density ([2]; 313.15 K, x2 = 0): 929.577 ± 2 kg/m3
- viscosity ([2]; 318.15 K, x2 = 0): 0.65 ± 0.2 mPa·s
- speed of sound ([2]; 318.15 K, x2 = 0): 1379.9 ± 2.2 m/s
- mass density ([2]; 318.15 K, x2 = 0): 924.765 ± 2 kg/m3
- viscosity ([2]; 323.15 K, x2 = 0): 0.62 ± 0.2 mPa·s
- speed of sound ([2]; 323.15 K, x2 = 0): 1360.7 ± 2.2 m/s
- mass density ([2]; 323.15 K, x2 = 0): 919.95 ± 2 kg/m3

SMILES: CCCCn1cc[n+](C)c1.O=S(=O)([O-])C(F)(F)F [1-butyl-3-methylimidazolium trifluoromethanesulfonate]
- viscosity ([1]; 298.15 K): 82.38 ± 1.7 mPa·s
- speed of sound ([1]; 298.15 K): 1393.2 ± 2.8 m/s
- mass density ([1]; 298.15 K): 1297.46 ± 2.4 kg/m3
- viscosity ([1]; 303.15 K): 66.69 ± 1.2 mPa·s
- speed of sound ([1]; 303.15 K): 1382.8 ± 2.8 m/s
- mass density ([1]; 303.15 K): 1293.46 ± 2.4 kg/m3
- viscosity ([1]; 308.15 K): 52.86 ± 0.96 mPa·s
- speed of sound ([1]; 308.15 K): 1371.7 ± 2.8 m/s
- mass density ([1]; 308.15 K): 1289.47 ± 2.4 kg/m3
- viscosity ([1]; 313.15 K): 43.67 ± 0.96 mPa·s
- speed of sound ([1]; 313.15 K): 1360.7 ± 2.8 m/s
- mass density ([1]; 313.15 K): 1285.47 ± 2.4 kg/m3
- viscosity ([1]; 318.15 K): 36.29 ± 0.92 mPa·s
- speed of sound ([1]; 318.15 K): 1349.9 ± 2.8 m/s
- mass density ([1]; 318.15 K): 1281.47 ± 2.4 kg/m3
- viscosity ([1]; 323.15 K): 30.57 ± 0.88 mPa·s
- speed of sound ([1]; 323.15 K): 1338.8 ± 2.8 m/s
- mass density ([1]; 323.15 K): 1277.48 ± 2.4 kg/m3
